Assay results as given in ChEMBL document CHEMBL1155818, “Uredinorubellins and caeruleoramularin, photodynamically active anthraquinone derivatives produced by two species of the genus ramularia” (J Nat Prod, 2008).
The source made the active and inactive calls. The calls are words filed in the database; no cut-off is given here.

Columns and labels:
HT-29 [1] = experiment: Reduction of cell viability in human HT29 cells at 2 uM followed by illumination at 2.5 W/cm'2 cold light for 40 seconds by XTT assay; assay type: functional, cell-based
HT-29 [2] = experiment: Reduction of cell viability in human HT29 cells at 10 uM followed by illumination at 2.5 W/cm'2 cold light for 40 seconds by XTT assay; assay type: functional, cell-based
Pseudomonas aeruginosa = experiment: Antimicrobial activity against […] Pseudomonas aeruginosa DSM1117 on exposure to 2.5 W/cm'2 cold light for 40 secs at 1 to 100 uM; assay type: functional, organism-based
Oryctolagus cuniculus [3] = organism: Oryctolagus cuniculus; experiment: Reduction of cell viability in rabbit HIG82 cells at 2 uM followed by illumination at 2.5 W/cm'2 cold light for 40 seconds by XTT assay; assay type: functional, cell-based
J774.A1 [4] = experiment: Reduction of cell viability in mouse J774A.1 cells at 2 uM followed by illumination at 2.5 W/cm'2 cold light for 40 seconds by XTT assay; assay type: functional, cell-based
Oryctolagus cuniculus [5] = organism: Oryctolagus cuniculus; experiment: Reduction of cell viability in rabbit HIG82 cells at 10 uM followed by illumination at 2.5 W/cm'2 cold light for 40 seconds by XTT assay; assay type: functional, cell-based
J774.A1 [6] = experiment: Reduction of cell viability in mouse J774A.1 cells at 10 uM followed by illumination at 2.5 W/cm'2 cold light for 40 seconds by XTT assay; assay type: functional, cell-based

## Cc1cc(O)c2c(c1)[C@H](O)[C@]13Cc4cc(O)c5c(c4[C@H]1C=C[C@@H](O)[C@@]3(O)C2=O)C(=O)c1c(O)ccc(O)c1C5=O
HT-29 [1]
  Activity: Active
HT-29 [2]
  Activity: Active
Pseudomonas aeruginosa
  Activity: inactive

## Cc1cc(O)c2c(c1)C(=O)c1cccc(O)c1C2=O
Oryctolagus cuniculus [3]
  Activity: inactive
J774.A1 [4]
  Activity: inactive
Pseudomonas aeruginosa
  Activity: inactive

## Cc1cc(O)c2c(c1)[C@H](O)[C@]13Cc4cc(O)c5c(c4[C@H]1C=C[C@@H](O)[C@@]3(O)C2=O)C(=O)c1cccc(O)c1C5=O
Oryctolagus cuniculus [3]
  Activity: Active
Oryctolagus cuniculus [5]
  Activity: Active
J774.A1 [4]
  Activity: Active
J774.A1 [6]
  Activity: Active
Pseudomonas aeruginosa
  Activity: inactive

## Cc1cc(O)c2c(c1)[C@H](O)[C@]13Cc4cc(O)c5c(c4[C@H]1C=C[C@@H](O)[C@H]3OC2=O)C=C1C(=O)C=CC(O)=C1C5=O
Oryctolagus cuniculus [3]
  Activity: inactive
J774.A1 [4]
  Activity: inactive
Pseudomonas aeruginosa
  Activity: inactive
